These are literature values, as cited in patent publication US20200399681A1, “ASSAY FOR DETECTION OF ANDROGEN RECEPTOR VARIANTS” (Cornell University, priority 2018, published 2020).

Read-outs that look alike come from different tables or passages of the source.

Data set [1] has as its system prostate cancer patients.
In data set [2] the test system is prostate cancer patients. The source holds these as a separate data set.

On to `CNC(=O)c1ccc(N2C(=S)N(c3ccc(C#N)c(C(F)(F)F)c3)C(=O)C2(C)C)cc1F` [enza, enzalutamide], for which, in data set [1] (AR-V7- (negative) pts), the “PSA progression-free survival, median” value is given as 6.0 months; P < 0.001) &. In addition, the results for the “overall survival (OS), median” value in data set [1] (AR-V7- (negative) pts) and in data set [1] (AR-V7-positive pts) were “not reached” and 5.5 months, respectively. Also, the “PSA response rates, AR-V7-positive pts compared with AR-V7- pts” value in data set [1] (AR-V7-positive vs AR-V7- pts) is “positive pts had lower PSA”. Further, the “adjusted HR for AR-V7 (TTF, multivariable analysis)” value in data set [2] (high AR-V7 expression, adjusted for covariates) is reported as “cohort (adjusted HR = 2.02”. The “median OS” value in data set [2] (pts with high AR-V7 expression (the shorter OS)) is 13.8 months; in data set [2] (pts without high AR-V7 expression) it was 29.1 months. Besides, the “time to treatment failure (TTF), median” value in data set [2] (pts with high AR-V7 expression (top tertile, >19 copies/mg RNA)) was “P = 0.046) and median 3.6 months”.
